Assay results taken from PMC6522510 (Nature Communications, 2019).
Read-outs that look alike come from different tables or passages of the source.

How the values were obtained:
THP-1 = type: cell-based; conditions: Homo sapiens, 72 h, Cell Titer Glo
ML-2 = type: cell-based; conditions: Homo sapiens, 72 h, Cell Titer Glo
MV4-11 = test: cells; design: species or system AML cell lines (8); Secondary HTS, 10-point dose-response in triplicate, Cell Titer Glo viability, four-parameter fit EC50; conditions: Homo sapiens, MV4-11, 72 h, read-out: MV4-11
[1] = In vivo tolerability / maximum tolerated dose; design: species or system mice
Method: Next, we sought to compare the in vivo efficacy of gemcitabine and cabazitaxel to the standard of care, cytarabine. Due to limitations with tolerability, we have previously treated our AML xenograft models with low-dose cytarabine[13],[31]. […] Tolerability studies of gemcitabine at the same dose and schedule was not tolerated. […] Similarly, we performed tolerability of cabazitaxel using multiple doses on an intermittent every 3 or 4-day schedule; the only tolerable dose was 5 mg/kg.
All animal studies were performed in accordance with Animal Care and Use Programs under protocols approved by the Institutional Animal Care and Use Committee at OSU. We have complied with the relevant ethical considerations for animal research overseen by this committee. Mice were housed in a barrier facility. Non-tumor bearing Ly5.2 C57Bl/6 (BoyJ) mice were treated with 100, 120, or 140 mg kg^−1 gemcitabine on an intermittent schedule every 3 days for 3 weeks; 3 or 6 mg kg^−1 doses were used to evaluate daily for 5 days schedule. All doses were administered by intraperitoneal injection; tolerability was assessed by daily weights and observation of changes in body condition.
Supplementary Figure 12. Establish maximum tolerated dose of gemcitabine. Non-tumor bearing female BoyJ mice were treated on an intermittent schedule every 3 days for 3 weeks with 100, 120, or 140 m gkg-1 gemcitabine (Gem ) or treated on a daily schedule once a day for 5 days with 3 or 6 m gkg-1 Gem. Daily weight of treated mice; data reported as a percent weight loss from day 0. Arrow indicate treatment days.

MOLM-13 [2] = type: cell-based; conditions: Homo sapiens, 72 h, Cell Titer Glo
[3] = tested on: CBFA2T3-GLIS2/JAK2V617F-induced AMKL model; test: In vivo efficacy, survival; design: species or system mice; conditions: CBFA2T3-GLIS2/JAK2V617F-Luc+ quaternary transplants, i.p.
CMS [4] = test: Secondary dose-response HTS, Cell Titer Glo; type: cell-based, human; conditions: Homo sapiens; secondary HTS, 72 h, average of triplicate; read-out: EC50 CMS
CHRF288-11 = test: Secondary dose-response HTS, Cell Titer Glo; type: cell-based, human; conditions: Homo sapiens; secondary HTS, 72 h, average of triplicate; read-out: EC50 CHRF288-11
[5] = tested on: ML-2-luciferase/YFP+ xenograft; test: In vivo efficacy, survival; design: species or system NSG mice; conditions: ML-2 xenograft, 50 mg kg−1 q4d, i.p.
[6] = tested on: CHRF288-11-luciferase/YFP+ xenograft; test: In vivo efficacy, survival; design: species or system NSG mice; conditions: CHRF288-11 xenograft, 50 mg kg−1 q4d, i.p.
MOLM-13 [7] = test: Secondary dose-response HTS, Cell Titer Glo; type: cell-based, human; conditions: Homo sapiens, MOLM-13
[8] = tested on: AMKL primary AML blast samples; test: Ex vivo drug treatment of primary AML blasts on mesenchymal stromal cells; type: cell-based; conditions: Homo sapiens; primary blasts on MSC, 96 h
[9] = tested on: Mll-PTD/wt:Flt3ITD/ITD secondary transplants; test: In vivo efficacy, survival; design: species or system mice; conditions: for Median survival: i.p.
U937 [10] = type: cell-based; conditions: Homo sapiens, U-937; 72 h, Cell Titer Glo
[11] = tested on: Mll PTD/wt:Flt3 ITD/ITD double knock-in primary transplant blasts (bone marrow, spleen); test: Accumulation in primary murine blasts; type: cell-based, mouse; conditions: blasts from bone marrow or spleen
Method: Cells were washed twice with ice-cold PBS; cell pellets were solubilized in 400 µL 1 N NaOH and agitated (300 rpm) at room temperature for 2 h. Then samples were neutralized with […] 1 M HCl; a 25 µL aliquot of lysate was used to estimate protein concentration using a Pierce BCA protein assay kit (Thermo Scientific). Total radioactivity was measured by a Tri-Carb 4810TR liquid scintillation counter (Perkin-Elmer) after mixing the sample with 4 mL of Emulsifier Safe (Perkin Elmer); the results were normalized to total protein content as measured by a Pierce BCA protein assay kit. Three independent experiments were performed in triplicate.
Bone marrow and splenocytes were isolated from mice transplanted with dKI AML and CG-V617 AMKL. Following red blood cells lysis, dKI AML leukemic blasts from vehicle treated mice were evaluated for accumulation of cytarabine and gemcitabine using the uptake assay described above.
Supplementary Figure 5. Accumulation of cytarabine and gemcitabine .
unlabeled and [3H]-cytarabine (Ara- C) or gemcitabine ( Gem ). Intracellular Ara- C, Gem ,
scintillation counting and normalized to protein levels. Representative chromatogram for
as disintegrations per minute (DPM) over complete run time. (c) Percentage of total
independent experiments (N=9). (d) Accumulation was determined in cell lysate of bone
double knock-in primary transplant recipient. […]

U937 [12] = test: cells; design: species or system AML cell lines (8); Secondary HTS, 10-point dose-response in triplicate, Cell Titer Glo viability, four-parameter fit EC50; conditions: Homo sapiens, U-937, 72 h, read-out: U937
CMS [13] = type: cell-based; conditions: Homo sapiens; 72 h, Cell Titer Glo; read-out: IC50 CMS
U937 [14] = test: Secondary dose-response HTS, Cell Titer Glo; type: cell-based, human; conditions: Homo sapiens, U-937; secondary HTS, 72 h, average of triplicate; read-out: EC50 U937

Question: What does the source list for `Nc1ccn([C@@H]2O[C@H](CO)[C@@H](O)C2(F)F)c(=O)n1` [Gemcitabine, gemcitabine]?
Answer: IC50 (THP-1): 3.5 nM; IC50 (ML-2): 0.6 nM; EC50 (MV4-11): 2.1 nM; MTD at 5 days ([1]; female, Ly5.2 C57Bl/6 (BoyJ), mouse, in vivo, ip, immunocompetent (BoyJ) mice, daily for 5 days, i.p., read-out: MTD, daily administration): 3 mg/kg; MTD, intermittent administration ([1]; immunocompetent (BoyJ) mice, q3d for 3 weeks, i.p.): 120 mg/kg; tolerability ([1]; mouse, in vivo): not tolerated; IC50 (MOLM-13 [2]): 0.7 nM; Median survival ([3]; 3 mg kg−1 daily x 5 days): 91 days; Median survival ([3]; 120 mg kg−1 q3d): > 125 days; EC50 (CMS [4]): 30 nM; EC50 (CHRF288-11): 3 nM; Median survival [5]: 45 days; Median survival [6]: 48 days; Median survival ([6]; x 2 cycles): 66 days; EC50 (MOLM-13 [7]; secondary HTS, 72 h, average of triplicate, read-out: EC50 MOLM-13): 3 nM; EC50 (MOLM-13 [7]; secondary high-throughput screen, read-out: average effective concentration, MOLM-13): 2.73 nM; IC50 [8]: 108 nM; Median survival ([9]; 3 mg kg−1 daily x 5 days): 49 days; tolerability of the intermittent MTD ([9]; 120 mg kg−1 q3d): not well tolerated; Median survival ([9]; 120 mg kg−1 q3d (only 4 doses received)): 52 days; IC50 (U937 [10]): 31 nM; accumulation of total gemcitabine versus cytarabine [11]: 6.0–6.7 fold; EC50 (U937 [12]): 7.73 nM; IC50 (CMS [13]): 1 nM; EC50 (U937 [14]): 10 nM
